Measured values from patent publication US8450327B2, “CGRP antagonists” (Boehringer Ingelheim International GmbH, priority 2007, dated 2013).

Molecular target: T1, human CGRP receptor (Homo sapiens, UniProt O60894+Q16602)
T1 construct: SK-N-MC cells are cultivated in “Dulbecco's modified Eagle medium”; endogenous in cells; host or cells: SK-N-MC cells (membrane homogenate)
Assay: Binding studies with SK-N-MC cells (expressing the human CGRP receptor), 125I-CGRP displacement on membranes
Settings: SK-N-MC cell membranes, 50 pM 125I-iodotyrosyl-CGRP, 180 min at ambient temperature
Protocol: A. Binding Studies with SK-N-MC Cells (Expressing the Human CGRP Receptor)
SK-N-MC cells are cultivated in “Dulbecco's modified Eagle medium”. The medium is removed from confluent cultures. The cells are washed twice with PBS buffer (Gibco 041-04190 M), detached by the addition of PBS buffer mixed with 0.02% EDTA, and isolated by centrifuging. After resuspension in 20 ml of “Balanced Salts Solution” [BSS (in mM): NaCl 120, KCl 5.4, NaHCO3 16.2, MgSO4 0.8, NaHPO4 1.0, CaCl2 1.8, D-glucose 5.5, HEPES 30, pH 7.40] the cells are centrifuged twice at 100×g and resuspended in BSS. After the number of cells has been determined, the cells are homogenised using an Ultra-Turrax and centrifuged for 10 minutes at 3000×g. […]
After thawing, the homogenised product is diluted 1:10 with assay buffer (50 mM Tris, 150 mM NaCl, 5 mM MgCl2, 1 mM EDTA, pH 7.40) and homogenised for 30 seconds with an Ultra-Turrax. […] The protein-bound radioactivity is measured using a gamma counter. Non-specific binding is defined as the bound radioactivity after the presence of 1 μM human CGRP-alpha during incubation.
The concentration binding curves are analysed using computer-aided non-linear curve fitting.

T1 sequence (Q16602 23-461): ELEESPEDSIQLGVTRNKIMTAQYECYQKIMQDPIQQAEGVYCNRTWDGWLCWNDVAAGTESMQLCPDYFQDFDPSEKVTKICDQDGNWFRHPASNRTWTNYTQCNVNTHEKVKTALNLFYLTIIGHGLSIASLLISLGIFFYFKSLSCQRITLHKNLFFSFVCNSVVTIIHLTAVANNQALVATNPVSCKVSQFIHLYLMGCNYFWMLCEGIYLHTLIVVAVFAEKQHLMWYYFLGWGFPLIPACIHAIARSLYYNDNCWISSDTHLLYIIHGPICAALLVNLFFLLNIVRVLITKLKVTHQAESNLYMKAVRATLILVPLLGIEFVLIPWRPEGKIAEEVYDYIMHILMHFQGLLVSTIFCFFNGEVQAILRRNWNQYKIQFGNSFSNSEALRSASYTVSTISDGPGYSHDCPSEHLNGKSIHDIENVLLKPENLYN
T1 sequence (O60894 27-148): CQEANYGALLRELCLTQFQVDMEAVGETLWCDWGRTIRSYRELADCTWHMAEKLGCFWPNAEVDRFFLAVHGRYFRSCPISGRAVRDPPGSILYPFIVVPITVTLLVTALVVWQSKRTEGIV

Ki [nM] | Structure (SMILES)
6 | Cc1cc(C(=O)c2cc(N3CCC4(CC3)NC(=O)Nc3ccccc34)ncn2)cc2oc(=O)[nH]c12 [Example 1, 4-methyl-6-(6-(2′-oxo-2′,3′-dihydro-1′H-spiro[piperidin-4,4′-quinazolin]-1-yl)pyrimidine-4-carbonyl)benzo[d]oxazol-2(3H)-one]
27 | Cc1cc(C(=O)c2cc(Nc3ccc4c(c3)CC3(C4)C(=O)Nc4ncccc43)ncn2)cc2oc(=O)[nH]c12 (centres unmarked) [Example 2, 4-methyl-6-(6-(2′-oxo-1,1′,2′,3-tetrahydrospiro[inden-2,3′-pyrrolo[2,3-b]pyridin]-5-ylamino)pyrimidine-4-carbonyl)benzo[d]oxazol-2(3H)-one]
